From PubChem BioAssay (NCI)
Several values for one entry are separate records, joined by “and”; a condition that tells them apart may be missing. Equal entries are not always repeated.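 Briefly, cells in 96-well plates were exposed to five compound concentrations for 48 h, and endpoints were estimated by linear interpolation. GI50 marks 50% less growth. The concentration for full growth arrest is given as TGI.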

Tests used:
Assay in all cases: inhibition of tumour cell growth, NCI panel, 48 h
[1] = tested on: TK-10 renal
[2] = tested on: MOLT-4 leukemia
[3] = tested on: OVCAR-4 ovarian
[4] = tested on: OVCAR-8 ovarian
[5] = tested on: UO-31 renal
[6] = tested on: OVCAR-5 ovarian
[7] = tested on: HCT-15 colon
[8] = tested on: SR leukemia
[9] = tested on: SK-MEL-28 melanoma
[10] = tested on: CCRF-CEM leukemia

SMILES | TGI [1] [µM] | TGI [2] | TGI [3] [µM] | TGI [4] [µM] | TGI [5] | TGI [6] | TGI [7] | TGI [8] | TGI [9] [µM] | TGI [10] | GI50 [1] [µM] | GI50 [2] [µM] | GI50 [3] | GI50 [4] [µM] | GI50 [5] | GI50 [6] | GI50 [7] | GI50 [8] [µM] | GI50 [9] | GI50 [10] [µM]
Cc1ccccc1NC(=O)c1[nH]c(=S)nc(N)c1-c1ccccc1C | > 100 | > 100 µM | > 100 | > 100 | > 100 µM | > 100 µM | > 100 µM | > 100 µM | > 100 | > 100 µM | – | – | – | – | – | – | – | – | – | –
CC(C)[C@]12O[C@H]1[C@@H]1O[C@]13[C@]1(O[C@H]1C[C@H]1c4c(C(=O)c5ccccc5)oc(OC(=O)c5ccccc5)c4CC[C@@]13C)[C@@H]2O | 27.1 | > 31.6 µM | > 88.4 | > 50.2 | 10.5 µM | > 100 µM | > 100 µM | – | 0.0612 | – | 0.0282 | 0.0236 | 0.0313 µM | 0.0494 | 0.0223 µM | 0.0401 µM | 0.0291 µM | 0.0303 | 0.0184 µM | 0.0429
COC(=O)C1Cc2c([nH]c3ccccc23)C=N1 (configuration not stated) | > 100 | > 100 µM | > 100 | > 100 | > 100 µM | > 100 µM | > 100 µM | > 100 µM | > 100 | > 100 µM | – | – | – | – | – | – | – | – | – | –
O=Cc1ccc(C(F)(F)F)cc1.[C-]#[O+].[C-]#[O+].[C-]#[O+].[Cr] | > 100 | 68 µM | > 100 | > 100 | 48.5 µM | > 100 µM | 82.7 µM | 46.6 µM | > 100 | 65.1 µM | 25.9 | 15.4 | 27.1 µM | 25.3 | 16 µM | 53.9 µM | 26.1 µM | 15.1 | 63 µM | 9.87
CCOC(=O)C(=Cc1ccccc1Br)C(=O)OCC | 8.7 | 5.61 µM | 16.5 | 5.6 | – | 62.5 µM | 3.71 µM | 0.723 µM | 5.82 | > 100 µM | – | – | – | – | – | – | – | – | – | –
O=C1c2cc3c(cc2-c2c1c1ccc([N+](=O)[O-])cc1c(=O)n2CCCCl)OCO3 | > 100 | > 100 µM | > 100 | > 100 | > 100 µM | > 100 µM | > 100 µM | 27.8 µM | > 100 | > 100 µM | > 54.3 | 0.0528 | 7.34 µM | > 100 | 0.307 µM | 0.634 µM | 2.09 µM | 0.0158 | 0.525 µM | 0.279
O=Nc1c(-c2cccc([N+](=O)[O-])c2)nc2ncccn12 | 30.2 | 5.31 µM | 55.2 | 43.8 | 30.3 µM | 39.1 µM | 17.8 µM | 2.22 µM | 30.2 | 4.44 µM | 11 | 1.79 | 12 µM | 8.9 | 5.66 µM | 18.5 µM | 3.77 µM | 0.218 | 15.2 µM | 1.86
Nc1nc(Cl)nc2c1ncn2C1O[C@H](CO)[C@@H](O)[C@@H]1F (some centres not stated) | > 100 | – | > 100 | > 100 | 1.24 µM | > 100 µM | > 100 µM | > 100 µM | > 100 | > 100 µM | – | 0.033 | > 100 µM | 0.0423 | 0.156 µM | 3 µM | 4.73 µM | 0.387 | > 100 µM | 0.0281
Cc1cccc(C)c1NC(=O)C(=O)C1C(=O)N(c2ccccc2)N=C1N (configuration not stated) | > 100 | > 100 µM | > 100 | > 100 | > 100 µM | > 100 µM | > 100 µM | > 100 µM | > 100 | > 100 µM | – | – | – | – | – | – | – | – | – | –
CSC(=S)N/N=C(\C)c1ccccn1 | 24.2 | 0.975 µM | 10.6 | 13.5 | 11.8 µM | 22.2 µM | 24.5 µM | 6.46 µM | 17.5 | 1.68 µM | 0.527 | < 0.0145 | < 0.0169 µM | 0.203 | 0.154 µM | 0.143 µM | 0.16 µM | < 0.033 | 0.429 µM | < 0.01
CCOC1NC(=O)Oc2ccccc21 (configuration not stated) | > 100 | > 100 µM | > 100 | > 100 | > 100 µM | > 100 µM | > 100 µM | > 100 µM | > 100 | > 100 µM | – | – | – | – | – | – | – | – | – | –
O=C1c2cccc3cccc(c23)C(=O)N1CCCCOc1ccc(-c2nc3ccc(N4CCOCC4)cc3[nH]2)cc1 | 13.4 | > 100 µM | 4.08 | > 75.1 | > 35.2 µM | 34.9 µM | 8.01 µM | > 100 µM | 2.86 | > 28.2 µM | 3.57 | 2.95 | 1.8 µM | 6.21 | 10.8 µM | 18.9 µM | 2.14 µM | 2.35 | 1.42 µM | 2.91
Cn1c(=O)c(F)c(Nc2ccc(I)cc2F)c2c(=O)n(C[C@@H](O)CO)cnc21 | 26.4 | 45.1 µM and > 4.74 µM | > 100 | > 100 | 15.4 µM and > 4.09 µM | 35.3 µM and > 1.97 µM | 43.2 µM and > 8.26 µM | 36.4 µM and > 10 µM | – | 52 µM and > 7.18 µM | – | 18.4 | 6.33 µM and 1.21 µM | 7.91 | 0.304 µM and 0.0568 µM | < 0.01 µM and 0.0058 µM | 1.9 µM and 0.873 µM | 5.04 | < 0.01 µM and 0.00301 µM | –
Cc1cc(S(N)(=O)=O)c(S/C(=N\NS(=O)(=O)c2ccc(Cl)cc2)c2ccc(Cl)cc2)cc1Cl | > 100 | > 100 µM | > 100 | > 100 | > 100 µM | > 100 µM | > 100 µM | > 100 µM | > 100 | > 100 µM | > 100 | 8.12 | > 100 µM | > 100 | > 100 µM | > 100 µM | > 100 µM | 29.1 | > 100 µM | 61
O=C1/C(=C/c2ccc(O)cc2)CCC1CNc1ccc(Cl)cc1 (configuration not stated) | 10.3 | 6.45 µM | 8.86 | 7.1 | 9.82 µM | 23.5 µM | 2.83 µM | 5.51 µM | 24.2 | 11.2 µM | – | – | – | – | – | – | – | – | – | –
